Reference: article PMC5766233, “Ternary copper(II) complex: NCI60 screening, toxicity studies, and evaluation of efficacy in xenograft models of nasopharyngeal carcinoma” (PLoS ONE, 2018)

How the values were obtained:
CYP 2C8 = biological target: T1, CYP 2C8 (Homo sapiens, UniProt P10632); experiment: CYP450 inhibition assay, pooled human liver microsomes; settings: read-out: IC50 CYP 2C8; probe amodiaquine
T1 sequence (P10632 1-490): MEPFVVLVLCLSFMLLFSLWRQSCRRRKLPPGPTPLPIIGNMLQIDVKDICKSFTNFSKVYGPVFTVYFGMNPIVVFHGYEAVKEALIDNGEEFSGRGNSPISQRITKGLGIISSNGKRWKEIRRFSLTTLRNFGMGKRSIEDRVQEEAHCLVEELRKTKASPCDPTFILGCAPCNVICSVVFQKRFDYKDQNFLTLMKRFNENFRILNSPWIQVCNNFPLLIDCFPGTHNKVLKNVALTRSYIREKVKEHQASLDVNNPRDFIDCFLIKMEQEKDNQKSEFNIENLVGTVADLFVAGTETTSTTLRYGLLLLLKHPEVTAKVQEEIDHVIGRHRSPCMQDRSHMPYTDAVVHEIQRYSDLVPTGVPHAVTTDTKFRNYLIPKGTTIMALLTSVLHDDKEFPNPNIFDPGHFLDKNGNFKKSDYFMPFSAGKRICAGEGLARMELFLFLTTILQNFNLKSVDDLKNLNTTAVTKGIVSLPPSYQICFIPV
Protocol: (§1) In the CYP inhibition assay, human liver microsomes were incubated with the Cu(II) complex or reference standard. The inhibitory effects of these compounds were investigated against the major CYP isoforms namely 1A2, 2C9, 2C19, 2D6, 2B6, 2C8 and 3A4 with their respective isoform probe substrates in one reaction mixture (pooled probe substrate format using LC-MS/MS).
(§2) Pooled human liver microsomes (Sekisui Xeno Tech, LLC., Kansas City, KS, USA) were incubated with different concentrations of Cu(II) complex or reference standards in buffer containing 0.1% DMSO for 10 min at 37°C and the residual enzyme activity was measured using pooled probe substrates method by pooled LC-MS/MS. Briefly, incubation mixtures were prepared in a total volume of 200 μL with final component concentrations as follows: 0.1 M potassium phosphate buffer (pH 7.4), 1.5 mM NADPH, and 0.25 mg/ml HLM. […] After 20 min of incubation, the reactions were terminated by addition of 200 μL ice-cold acetonitrile (Rankem, Avantor Performance Materials India Limited, Andhra Pradesh, India) containing telmisartan and carbamazepine as internal standards (all probe substrates and standards were from Sigma Aldrich). Each reaction mixture was centrifuged at 3,500 rpm for 5 min and the supernatant was subjected to LC-MS/MS analysis. The percent inhibition was calculated using the following equation: %Inhibition=100‑[(activityintestwells/activityinbasalcontrolwells)×100]

CYP 1A2 = biological target: T2, CYP 1A2 (Homo sapiens, UniProt P05177); experiment: as above; format: in vitro ADME; settings: probe phenacetin
T2 construct: tissue Sekisui Xeno Tech, LLC; host or cells: pooled human liver microsomes
T2 sequence (P05177 1-516): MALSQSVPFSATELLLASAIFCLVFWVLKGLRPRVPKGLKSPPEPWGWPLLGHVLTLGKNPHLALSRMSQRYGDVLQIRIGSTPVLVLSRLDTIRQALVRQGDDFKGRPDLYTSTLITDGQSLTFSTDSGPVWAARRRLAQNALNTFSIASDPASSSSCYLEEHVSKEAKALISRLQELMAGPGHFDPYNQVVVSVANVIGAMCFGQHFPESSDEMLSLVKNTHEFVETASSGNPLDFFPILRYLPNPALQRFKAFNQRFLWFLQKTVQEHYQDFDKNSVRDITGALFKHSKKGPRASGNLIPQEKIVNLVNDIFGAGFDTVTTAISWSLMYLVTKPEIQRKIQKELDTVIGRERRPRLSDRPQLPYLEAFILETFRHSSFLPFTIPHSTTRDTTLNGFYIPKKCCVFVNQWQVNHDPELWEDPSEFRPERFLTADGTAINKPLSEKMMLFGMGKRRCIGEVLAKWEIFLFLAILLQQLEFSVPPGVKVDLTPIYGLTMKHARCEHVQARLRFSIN
Protocol: as §1, §2

HK1 xenograft = experiment: In vivo efficacy in HK1 xenograft model; set-up: species or system NOD scid gamma female mice
Protocol: Recognizing the relative lack of treatment options for advanced NPC compared to other major cancers in Malaysia and based on our previous finding of the anticancer activity against NPC cells, we proceeded to validate the anticancer properties of the Cu(II) complex in vivo using NPC xenograft models. To test the compound in vivo in the preclinical models, two pilot studies were carried out using the Cu(II) complex. First, the effects of the Cu(II) complex were investigated on HK1 xenograft bearing mice at three different dosage regimens (4, 6 and 8 mg/kg). […] Even though treatment with Cu(II) complex at 8 mg/kg every other day up to 3 doses was effective, 2 out of 7 mice were found deadand the experiment had to be terminated.
2.0 x 10^6 HK1 or C666-1-GFP-Luc2 cells in 100 μl RPMI media mixed with matrigel (BD Matrigel Basement Membrane Matrix; BD Biosciences, Bedford, MA, USA) was inoculated subcutaneously into the right lower flank of the NSG mice. Tumor growth was monitored and measured every other day using a digital caliper (Mitutoyo America Corporation, Aurora, Illinois, USA) until they reached 100–250 mm^3. Then, the mice were randomly assigned into treatment groups. The mice bearing HK1 xenograft tumor were divided into 3 treatment groups and a control (normal saline) group. The first batch received normal saline (one injection daily for 5 days), 6 mg/kg (one injection daily for 5 days) and 8 mg/kg (one injection every other day for 3 doses) of Cu(II) complex while the second batch received normal saline (one injection daily for 4 days), 4 mg/kg (one injection daily for 4 days), 6 mg/kg (one injection daily for 4 days) and 8 mg/kg (one injection every other day for 2 doses) of Cu(II) complex via intraperitoneal route.

[1] = tested on: CYP isoforms 1A2, 2C9, 2C19, 2D6, 2B6, 2C8 and 3A4; experiment: CYP450 inhibition assay, summary over all tested isoforms; format: in vitro ADME, human; settings: pooled probe substrates; read-out: IC50 values against all tested isoforms
Protocol: as §1
as §2, with “Each reaction mixture was centrifuged at 3,500 rpm for 5 min and the supernatant was subjected to LC-MS/MS analysis.” left out

## CC(C)(N)C(=O)[O-].O.O=[N+]([O-])[O-].[Cu+2].c1cnc2c(c1)ccc1cccnc12 [Cu(II) complex, [Cu(phen)(C-dmg)(H2O)]NO3]
CYP 2C8
  IC50: 10.3 µM
CYP 1A2
  IC50: 8.01 µM
HK1 xenograft; 8 mg/kg every other day up to 3 doses
  mice found dead: 2 out of 7
HK1 xenograft; 4, 6 and 8 mg/kg ip
  tumor growth: significantly inhibited the growth of HK1 tumor
HK1 xenograft; 4 and 6 mg/kg dose regimens
  tolerability / body weight: well tolerated with no significant body weight loss
HK1 xenograft; all the groups
  Histopathological examination of heart, liver, kidney and lung: did not show any remarkable changes
HK1 xenograft; all treatment groups vs control
  weight of vital organs: not significantly affected
[1]
  IC50: 5 to 10 µM
